The subject of test [1] is isolated hearts after ischemia-reperfusion. In words: Ischemia-reperfusion (IR): cardiac function (left ventricular pressure). Details: species or system mice. The following applies: for left ventricular developed pressure (LVDP), Mean: Table 6 group mean; for HR / LVDP / LVDPxHR / LVEDP / LVESP: individual hearts, MEAN = group mean. The procedure:
FIG. 38 is a schematic of the ischemia-reperfusion (IR) method used to analyze the effects of selected compositions on coronary flow, cardiac function, and infarct size. […] At 20 minutes, ischemia was induced, and coronary flow was analyzed. At 50 minutes, reperfusion was initiated to restore blood flow. At 170 minutes, coronary flow and cardiac function was analyzed, and then the hearts were preserved, sectioned, and infarct size was measured by triphenyltetrazolium chloride (TTC) staining. FIG. 40 is graph of left ventricular developed pressure (LVDP) after IR.

Test [2] has the same test system. Description: Ischemia-reperfusion (IR): infarct size by TTC staining. The format is in vivo, mice. The procedure:
FIG. 38 is a schematic of the ischemia-reperfusion (IR) method used to analyze the effects of selected compositions on coronary flow, cardiac function, and infarct size. […] At 20 minutes, ischemia was induced, and coronary flow was analyzed. At 50 minutes, reperfusion was initiated to restore blood flow. At 170 minutes, coronary flow and cardiac function was analyzed, and then the hearts were preserved, sectioned, and infarct size was measured by triphenyltetrazolium chloride (TTC) staining. […] FIG. 42 is graph of infarct size after IR.

The test system is the same in test [3]. Description: Ischemia-reperfusion (IR): coronary flow. Format: in vivo, mice. The settings on record: TMZ 20 μM, TNF 2 μM each, TNS 20 μM each, individual hearts, MEAN = group mean; for CF20: coronary flow at 20 minutes; for CF170: coronary flow at 170 minutes, after IR; for CF170/CF20: ratio of flow at 170 minutes to flow at 20 minutes. As to the method: FIG. 38 is a schematic of the ischemia-reperfusion (IR) method used to analyze the effects of selected compositions on coronary flow, cardiac function, and infarct size. […] At 20 minutes, ischemia was induced, and coronary flow was analyzed. At 50 minutes, reperfusion was initiated to restore blood flow. At 170 minutes, coronary flow and cardiac function was analyzed, and then the hearts were preserved, sectioned, and infarct size was measured by triphenyltetrazolium chloride (TTC) staining. FIG. 39 is a graph of coronary flow of after IR.

The test system of test [4] is TAC mice. Description: TAC mice: cardiac fibrosis, Masson's trichrome. The following applies: end of 6-week experiment. Format: in vivo.
In test [5] the test system is TAC mice. In words: TAC mice: left ventricular pressure with Mikro-tip catheter. The settings on record: end of 6-week treatment; for left ventricular developed pressure (LVDP): TMZ 6, NA 2.4, CV-8814 7.5, CV-8972 10 mg/kg/day. The format is in vivo.
The subject of test [6] is TAC mice. In words: TAC mice, six weeks treatment: heart weight and heart weight/body weight. The format is in vivo. The settings on record: 6 weeks; for cardiac remodeling in TAC mice (in words): TMZ 6, NA 2.4, CV-8814 7.5, CV-8972 10 mg/kg/day.
The test system of test [7] is TAC mice. Description: TAC mice: echocardiography. Format: in vivo.
[8] abbreviates: TMZ 20 μM, TNF 2 μM each, TNS 20 μM each.

The record followed here is US20220249463A1, “METHODS OF ALTERING CARDIAC REMODELING USING COMPOUNDS THAT PROMOTE GLUCOSE OXIDATION” (IMBRIA PHARMACEUTICALS, INC., priority 2019, published 2022).

Where “and” joins values, the source holds several entries; their conditions need not be identical. Equal entries are not always repeated.

In the case of `COc1ccc(CN2CCNCC2)c(OC)c1OC` [TMZ, trimetazidine], the “left ventricular developed pressure (LVDP), Mean” value in test [1] (T20 (20 minutes)) turned out to be 55.86. Further, in test [1] (T170 (170 minutes, after IR)), the “left ventricular developed pressure (LVDP), Mean” value was found to be 48.91. Also, in test [1] (setting [8]), the “cardiac function after IR (in words)” value is listed as “prevented a decline in cardiac function”. Also, in test [1] (after 2h reperfusion), the HR is 1.18E+02 and 1.19E+02 and 1.01E+02 and 1.51E+02 and 6.70E+01 and 9.22E+01 and 2.22E+02 and 1.70E+02 and 1.16E+02 and 2.38E+02; the LVDP is 2.14E+01 and 4.34E+01 and 5.22E+01 and 2.97E+01 and 4.84E+01 and 4.67E+01 and 4.10E+01 and 7.65E+01 and 5.53E+01 and 7.43E+01; the LVDPxHR is 2.52E+03 and 5.15E+03 and 5.28E+03 and 4.49E+03 and 3.24E+03 and 4.31E+03 and 9.11E+03 and 1.30E+04 and 6.44E+03 and 1.77E+04; the LVEDP is 2.93E+01 and 3.31E+01 and 3.96E+01 and 1.80E+01 and 3.36E+00 and 1.87E+00 and 1.99E+01 and 3.21E+01 and 1.84E+01 and 1.77E+00. In addition, the LVESP in test [1] (after 2h reperfusion) is 5.07E+01 and 7.66E+01 and 9.19E+01 and 4.77E+01 and 5.18E+01 and 4.86E+01 and 6.09E+01 and 1.09E+02 and 7.38E+01 and 7.61E+01. In test [1] (after 2h reperfusion, mean), this molecule displayed an HR of 1.39E+02, an LVDP of 4.89E+01, an LVDPxHR of 6.82E+03 and an LVEDP of 1.97E+01. Moreover, the LVESP in test [1] (after 2h reperfusion, mean) came to 6.86E+01. The LVESP in test [1] (pre-ischemia, TMZ 20 μM, TNF 2 μM each, TNS 20 μM each) was 7.58E+01 and 8.44E+01 and 7.15E+01 and 5.47E+01 and 6.87E+01 and 4.27E+01 and 3.30E+01 (2×) and 6.60E+01 and 7.38E+01. In test [1] (pre-ischemia, TMZ 20 μM, TNF 2 μM each, TNS 20 μM each, mean), the LVESP worked out at 6.03E+01. In test [1] (pre-ischemia), the HR was 2.63E+02 and 2.93E+02 and 1.66E+02 and 3.35E+02 and 3.58E+02 and 3.33E+02 and 3.48E+02 and 3.21E+02 and 2.67E+02 and 3.32E+02; the LVDP is 6.93E+01 and 7.90E+01 and 6.48E+01 and 5.30E+01 and 6.51E+01 and 3.80E+01 and 2.82E+01 and 3.15E+01 and 5.87E+01 and 7.11E+01; the LVDPxHR is 1.83E+04 and 2.31E+04 and 1.08E+04 and 1.77E+04 and 2.33E+04 and 1.26E+04 and 9.82E+03 and 1.01E+04 and 1.57E+04 and 2.36E+04; the LVEDP is 6.53E+00 and 5.43E+00 and 6.76E+00 and 1.74E+00 and 3.58E+00 and 4.71E+00 and 4.77E+00 and 1.46E+00 and 7.25E+00 and 2.70E+00. In test [1] (pre-ischemia, mean), this molecule displayed an HR of 3.02E+02, an LVDP of 5.59E+01, an LVDPxHR of 1.68E+04 and an LVEDP of 4.49E+00. Further, the “infarct size after IR (in words)” value in test [2] (setting [8]) is on record as “decreased infarct size”. Moreover, the IS/LV in test [2] (individual isolated hearts after ischemia-reperfusion) is 58% and 49% (2×) and 44% and 71% and 64% and 68% and 60% and 43% and 51%. For the same molecule, the “IS/LV Mean” value in test [2] (mean of 10 hearts of the group) worked out at 56%. For the same molecule, in test [3], the CF20 was 2.13 mL/min and 1.7 mL/min and 2.18 mL/min and 3.83 mL/min and 1.72 mL/min and 2.4 mL/min and 2.14 mL/min and 2.03 mL/min; the CF170 was 0.0516 mL/min and 0.1 mL/min and 0.0778 mL/min and 0.129 mL/min and 0.0898 mL/min and 0.0656 mL/min and 0.0556 mL/min and 0.13 mL/min; the CF170/CF20 was 2.42E+01 μl/ml and 5.87E+01 μl/ml and 3.57E+01 μl/ml and 3.37E+01 μl/ml and 5.21E+01 μl/ml and 2.73E+01 μl/ml and 2.60E+01 μl/ml and 6.39E+01 μl/ml. Besides, in test [3] (mean), the CF20 came to 2.27 mL/min, the CF170 amounted to 0.0874 mL/min and the CF170/CF20 is given as 4.02E+01 μl/ml. For the same molecule, in the test with TAC mice [4], the “cardiac fibrosis (fibrotic area to whole heart tissue area)” value is reported as 7.6±1%. In addition, in the test with TAC mice [5], the “+dp/dtm” value is reported as 5157±615 mm Hg/sec and the “left ventricular developed pressure (LVDP)” value is recorded as 137±10 mm Hg. In addition, the “cardiac remodeling in TAC mice (in words)” value in the test on TAC mice [6] was “effectively inhibited cardiac remodeling”. The same molecule yielded a cardiac mass in the test with TAC mice [6] (TAC mice, TMZ 6, CV-8814 7.5, CV-8972 10 mg/kg/day, osmotic minipump) of 224 ± 12 mg. In the test on TAC mice [7] (3-weeks after TAC), this molecule gave an LV mass of 153 ± 8 mg. For the same molecule, in the test with TAC mice [7] (6-weeks after TAC), the IVRT was 36 ± 1 ms and the LV mass stood at 176 ± 15 mg.
As for `O=C(O)c1cccnc1` [NA, nicotinic acid, reference compound], the “cardiac fibrosis (fibrotic area to whole heart tissue area)” value in the test on TAC mice [4] is listed as 8.2±1%. For the same molecule, the “left ventricular developed pressure (LVDP)” value in the test with TAC mice [5] is 141±20 mm Hg. In addition, in the test on TAC mice [6], the “cardiac remodeling in TAC mice (in words)” value is listed as “no significant effect on cardiac remodeling”. The same molecule returned an IVRT in the test on TAC mice [7] (6-weeks after TAC) of 29 ± 2 ms. Besides, in the test with TAC mice [7] (TAC mice, NA 2.4 mg/kg/day), the “IVSd (in words)” value is listed as “decreased IVSd” and the “LV mass (in words)” value is “no effect on LV mass”.
